According to patent US11357873B2, “Chiral cyclen compounds and their uses” (THE HONG KONG POLYTECHNIC UNIVERSITY, priority 2016, dated 2022):
Each block holds one compound with its values, some of them ahead of it.

What was measured:
[1] = Water solubility of complexes; assay type: physicochemical
[2] = Absorption and photoluminescence (quantum yield, lifetime, q); assay type: physicochemical; parameters: λabs(max): unit not given here; conditions: for R, I(5D0 → 7F2)/I(5D0 → 7F1): asymmetry ratio, 10 in MeOH; for R, I(5D0 → 7F2)/I(5D0 → 7F1) / λabs(max): room temperature, 11 in DMSO; for ΦDMSO (%): luminescence quantum yield in DMSO; for λabs(max): 10 measured in MeOH
Experimental: (§1) Absorption spectra of complexes were measured with HP UV-8453 spectrophotometer. Steady-state room temperature photoluminescence measurements were performed with an Edinburgh Instrument FLSP920 spectrophotometer equipped with a Xe900 continuous xenon lamp, μF920 microsecond flash lamp and a single photon counting photomultiplier tube. Spectra were corrected with the bundled F900 software. Solution-state measurements were conducted using quartz curettes of 10 mm path length. CPL measurements were conducted on a custom built spectrometer^63 (in Durham University) consisting of a laser driven light source (Energetiq EQ-99 LDLS, spectral range 170 to 2100 nm) coupled to an Acton SP2150 monochromator (600 g/nm, 300 nm Blaze) that allows excitation wavelengths to be selected with a 6 nm FWHM band-pass. The collection of the emitted light was facilitated (90° angle set up, 1 cm path length quartz curette) by a Lock-In Amplifier (Hinds Instruments Signaloc 2100) and Photoelastic Modulator (Hinds Instruments PEM-90). The differentiated light was focused onto an Acton SP2150 monochromator (1200 g/nm, 500 nm Blaze) equipped with a high sensitivity cooled Photo Multiplier Tube (H10723-20 Extended red-multialkali PMT based photosensor (5V)). Spectra were recorded using a 5 spectral average sequence in the range of 570-720 nm with 0.5 nm spectral intervals and 500 μs integration time. The recorded CPL spectrum underwent a 25% Fourier transformation smoothening protocol using Origin 8.0 Software (Origin Labs) to enhance appearance (all calculations were carried out using raw spectral data).
The shift in absorption is caused by electronic communication between the electropositive lanthanide center and the chromophore. […] These are not observed for 11, however, as we believe the steric effect of the planar phenyl ring of the benzyl group could not be alleviated by appropriate rotation, whereas that of the isobutyl group could.
The luminescence quantum yields of the complexes are decent in water and HEPES solution, although they are much higher in DMSO, due to the nonradiative quenching by O—H oscillators of water molecules in the second coordination sphere (Table 6). The intrinsic quantum yields^61—a calculated value evaluating the quantum yield of Eu(III) via direct metal excitation—of the complexes are calculated, and, as expected, the values are very similar, except for 10. The higher value corroborates with the shift in absorption maximum, for which we believe the reason is due to a shorter europium—chromophore distance and better interaction. On the other hand, the sensitization efficiencies of the complexes vary. […] The relatively remarkable ηsens of 13 is attributed to its structural rigidity, as both the tetraaza backbone and the acetate arms are modified with a chrial substituent, i.e., double chirality. The double chirality is also attributed for the increase in luminescence quantum yield compared to that of 12a/12b.

[3] = Circularly polarized luminescence (CPL), dissymmetry factor glum; assay type: physicochemical; conditions: wavelength in parentheses in the cell
Experimental: as §1, with “Steady-state” for “Absorption spectra of complexes were measured with HP UV-8453 spectrophotometer. Steady-state”, “time.” for “time. The recorded CPL spectrum underwent a 25% Fourier transformation smoothening protocol using Origin 8.0 Software (Origin Labs) to enhance appearance (all calculations were carried out using raw spectral data).”

[4] = Stability of isomers on heating and storage by 1H NMR; assay type: physicochemical
Excerpt: In aqueous solution, the ratio of TSA/SA isomers of Eu(III) and Yb(III) complexes in DOTA-like systems can be easily determined by ^1H NMR as two well-defined sets of six resonances are observed for the diastereotopic protons in CH2CO and NCH2CH2N.^13 Although the Gd(III) complexes cannot be analyzed by NMR, their ratio of isomers are expected to be similar to those of the Eu(III) and Yb(III) complexes because the ionic radius of Gd(III) is similar to the ionic radius of Eu(III) and Yb(III).
The conformational properties of the lanthanide complexes were investigated by both HPLC and NMR spectroscopy. The ^1H NMR spectra of the four europium chiral DOTA-based complexes are compared in FIG. 3. […] In the cases of [EuL3]^− and [EuL4]^−, the twisted antiprismatic isomers were more dominant, with the ratio of 6.52 for [EuL3]^− and 13.50 for [EuL4]^− observed.
The stability of the complexes toward racemization over time was also monitored by ^1H NMR (FIG. 20). […] Nevertheless, the original set of peaks existed predominately when the pD was adjusted from 6.0 to 7.5 and further heated for 12 h at 90° C. It can be observed that while the purity of the ligands may not be highly satisfactory, pure complexes could be obtained by HPLC separation after complexation. This phenomenon indicates the purification of DOTA-based ligands should be handled with care.

[5] = Relaxivity (r1, r2) measurement of Gd(III) complexes in water, BSA and human plasma; assay type: physicochemical; parameters: r1 Human Plasma (1.5 T): unit not given beside the values; conditions: 37° C.
Experimental: This is very important because the huge difference in the inner-sphere coordinated water exchange rate between the two isomers is a key factor for applications, for example, as MRI contrast agents. To show their potential value, the two diastereomers of [GdL2]^− ([GdL2A]^− and [GdL2B]^−) were separated and their relaxivities were measured. The relaxivities of [GdL1]^−, [GdL2]^−, [GdL2A]^−, [GdL2B]^− and [GdDOTA]^− in water at different magnetic strengths (1.5 T and 11.7 T) were compared, with or without the presence of BSA and human plasma (1.5 T) (Table 1). It is clearly seen that the complexes of [GdL1]^−, [GdL2A]^− and [GdL2B]^− have relaxivity properties similar to that of the [GdDOTA]^− complex.

[6] = Kinetic inertness: competitive titration with DTPA, UPLC-HRMS; assay type: physicochemical; conditions: 1000 eq. of DTPA, pH 5.0, 0.1 M ammonium acetate, shaken 7 days; for decomplexation in presence of competitive ligand DTPA: room temperature
Experimental: Experimental procedure: Stock solution of [GdL1]^− and [GdL2]^− were prepared in 0.1 M ammonium acetate, 0˜1000 equivalents of DTPA were added into the solutions, the final concentrations of the gadolinium complexes were 14.8 mM for [GdL1]^− and 21.6 mM for [GdL2]^− (6 mL). The mixtures were shaken at room temperature, and samples of 1 ml of solutions were taken out for UPLC-HRMS analysis on day 3 and day 7.
Results: Competitive bath titrations were performed with the Gd analogues, [GdL1]^− and [GdL2]^−, in the presence of 0-1000 equivalents of competitive ligand DTPA (pentetic acid or diethylenetriaminepentaacetic acid) in 0.1 M ammonium acetate solution. After being shaken for 7 days (1000 eq. of DTPA, pH 5.0), the mixtures were analyzed by UPLC-HRMS. […] This finding is of significant importance for future use of the complexes in biomedical applications.

[7] = test system: human plasma; assay: Protein binding with human plasma determined by ICP-MS; assay type: in vitro ADME
[8] = molecular target: BSA (Bos taurus, UniProt P02769); assay: Protein binding with BSA determined by ICP-MS; assay type: in vitro ADME
BSA, sequence (P02769 25-607): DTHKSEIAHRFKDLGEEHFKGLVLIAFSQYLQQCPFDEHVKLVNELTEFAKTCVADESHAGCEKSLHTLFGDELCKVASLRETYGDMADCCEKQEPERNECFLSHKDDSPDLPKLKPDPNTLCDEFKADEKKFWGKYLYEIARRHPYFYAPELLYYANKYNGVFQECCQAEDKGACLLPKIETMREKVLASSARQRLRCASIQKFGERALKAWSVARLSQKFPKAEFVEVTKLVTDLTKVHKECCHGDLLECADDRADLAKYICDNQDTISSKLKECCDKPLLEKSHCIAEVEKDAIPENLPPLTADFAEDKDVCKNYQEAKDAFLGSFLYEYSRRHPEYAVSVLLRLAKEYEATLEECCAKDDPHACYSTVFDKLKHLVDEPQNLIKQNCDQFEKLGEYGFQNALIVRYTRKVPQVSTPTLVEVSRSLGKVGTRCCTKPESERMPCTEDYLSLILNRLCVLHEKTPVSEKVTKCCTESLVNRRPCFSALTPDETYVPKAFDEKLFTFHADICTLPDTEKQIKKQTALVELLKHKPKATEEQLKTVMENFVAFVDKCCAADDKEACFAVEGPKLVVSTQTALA

[9] = ICP-MS, summary of Tables 2 and 3
[10] = Table 2, sample A, conc. before 0.3167862 mM
[11] = Table 2, sample B, conc. before 0.162104 mM
[12] = Table 2, sample C, conc. before 0.021152 mM
[13] = Table 3, sample A, conc. before 0.3699171 mM
[14] = Table 3, sample B, conc. before 0.134016 mM
[15] = Table 3, sample C, conc. before 0.0189002 mM
[16] = Table 2, sample A, conc. before 0.32286251 mM
[17] = Table 2, sample B, conc. before 0.15917209 mM
[18] = Table 2, sample C, conc. before 0.02070731 mM
[19] = Table 3, sample A, conc. before 0.3714242 mM
[20] = Table 3, sample B, conc. before 0.1551093 mM
[21] = Table 3, sample C, conc. before 0.0251512 mM

water solubility [1]: poor water solubility
R, I(5D0 → 7F2)/I(5D0 → 7F1) [2]: 2.69
ΦDMSO (%) [2]: 40.4%
λabs(max) [2]: 354
glum ΔJ = 3 (λ) DMSO ([3]; DMSO): +0.25 (657)
Compound: COc1cc(OC)c(C#Cc2cc(CN3CC(Cc4ccccc4)N(CC(=O)[O-])CC(Cc4ccccc4)N(CC(=O)[O-])CC(Cc4ccccc4)N(CC(=O)[O-])CC3Cc3ccccc3)nc(P(C)(=O)[O-])c2)c(OC)c1.[Eu+3] (stereo not shown) [Complex 11]

isomer ratio after heating (lack of racemization) ([4]; solution of [EuL2A]− and [EuL2B]− at 1:0.25, 90° C. for 3 days): remained at the same ratio
Compound: CC[C@H]1CN(CC(=O)[O-])[C@@H](CC)CN(CC(=O)[O-])[C@@H](CC)CN(CC(=O)[O-])[C@@H](CC)CN1CC(=O)[O-].[Eu+3] (single isomer, unassigned) [[EuL2A]^−]

Continued, compound first:

Compound: CC[C@H]1CN(CC(=O)[O-])[C@@H](CC)CN(CC(=O)[O-])[C@@H](CC)CN(CC(=O)[O-])[C@@H](CC)CN1CC(=O)[O-].[Gd+3] [[GdL2]^−]
r1 4.5 w/v BSA (1.5 T) [5]: 3.6
r1 Human Plasma (1.5 T) [5]: 2.9
r1 Water (1.5 T) [5]: 2.6
r1 Water (11.7 T) [5]: 3.1
ratio of TSA/SA after DTPA challenge [6]: remained the same
decomplexation in presence of competitive ligand DTPA [6]: No trace of any decomplexation

Compound: CC[C@@H]1CN(CC(=O)[O-])[C@H](CC)CN(Cc2cc(C#Cc3c(OC)cc(OC)cc3OC)cc(P(C)(=O)[O-])n2)[C@H](CC)CN(CC(=O)[O-])[C@H](CC)CN1CC(=O)[O-].[Eu+3] [Complex 9]
R, I(5D0 → 7F2)/I(5D0 → 7F1) [2]: 2.44
q (Parker's) ([2]; from lifetimes in H2O and D2O, first value of cell): 0.02
q (Horrocks') ([2]; from lifetimes in H2O and D2O, second value of cell): 0.05
ΦEuEu (%) ([2]; intrinsic quantum yield, calculated value): 28.1%
τD2O/MeOD ([2]; luminescence lifetime, 5D0 → 7F2 transition, D2O (MeOD for 10)): 1.77 ms
τH2O/MeOH ([2]; luminescence lifetime, 5D0 → 7F2 transition, H2O (MeOH for 10)): 1.20 ms
ΦDMSO (%) [2]: 53.0%
ΦH2O/MeOH (%) ([2]; luminescence quantum yield relative to quinine sulfate in 0.1M H2SO4, H2O (MeOH for 10, insoluble in H2O)): 14.9%
ΦHEPES (%) ([2]; luminescence quantum yield, 0.1M HEPES buffer, pH 7.4): 14.3%
λabs(max) [2]: 356
ηsens (%) ([2]; sensitization efficiency, calculated according to ref 61): 53.0%
glum ΔJ = 1 (λ) DMSO ([3]; DMSO): +0.17 (591)
glum ΔJ = 3 (λ) DMSO ([3]; DMSO): +0.13 (657)
glum ΔJ = 1 (λ) H2O ([3]; H2O): +0.12 (591)
glum ΔJ = 3 (λ) H2O ([3]; H2O): +0.21 (653)
1H NMR spectrum after storage (stability toward racemization) ([4]; 9 months at room temperature, pD 6.0, D2O): consistent after 9 months of storage
1H NMR spectrum upon heating (stability toward racemization) ([4]; heating at 90° C.): a new set of peaks appeared

Compound: C[C@H]1CN(CC(=O)[O-])[C@@H](C)CN(CC(=O)[O-])[C@@H](C)CN(CC(=O)[O-])[C@@H](C)CN1CC(=O)[O-].[Gd+3] [[GdL1]^−]
r1 4.5 w/v BSA (1.5 T) [5]: 4.1
r1 Human Plasma (1.5 T) [5]: 3.9
r1 Water (1.5 T) [5]: 3.4
r1 Water (11.7 T) [5]: 2.8
complex binding with human plasma [7, 9]: less than 5%
% bound In Plasma [7, 10]: (2.2% bound)
Conc. (mM) In Plasma after [7, 10]: 0.3097 mM
% bound In Plasma [7, 11]: (1.8% bound)
Conc. (mM) In Plasma after [7, 11]: 0.1592 mM
% bound In Plasma [7, 12]: (4.7% bound)
Conc. (mM) In Plasma after [7, 12]: 0.02015 mM
% bound In Plasma [7, 13]: (2.6% bound)
Conc. (mM) In Plasma after [7, 13]: 0.3602 mM
% bound In Plasma [7, 14]: (2.2% bound)
Conc. (mM) In Plasma after [7, 14]: 0.1311 mM
% bound In Plasma [7, 15]: (3.9% bound)
Conc. (mM) In Plasma after [7, 15]: 0.01816 mM
complex binding with BSA [8, 9]: less than 5%
% bound In BSA [8, 16]: (1.3% bound)
Conc. (mM) In BSA after [8, 16]: 0.3185 mM
% bound In BSA [8, 17]: (1.5% bound)
Conc. (mM) In BSA after [8, 17]: 0.1568 mM
% bound In BSA [8, 18]: (3.7% bound)
Conc. (mM) In BSA after [8, 18]: 0.02 mM
% bound In BSA [8, 19]: (1.9% bound)
Conc. (mM) In BSA after [8, 19]: 0.3641 mM
% bound In BSA [8, 20]: (3.4% bound)
Conc. (mM) In BSA after [8, 20]: 0.1498 mM
% bound In BSA [8, 21]: (2.2% bound)
Conc. (mM) In BSA after [8, 21]: 0.02458 mM
ratio of TSA/SA after DTPA challenge [6]: remained the same
decomplexation in presence of competitive ligand DTPA [6]: No trace of any decomplexation
